# Test results from publication PMC7189019.
# Experiment: On-resin head-to-side-chain macrolactonisation with cyclative cleavage: free Tyr phenol attacks the C-terminal N-acyl-MeNbz (N-acyl-N'-methylurea) resin, 10% DIEA, giving the Tyr phenyl ester
# Conditions: the molecule shown is the open-chain precursor, DCM (models 1-4, rt; 1 and 4 retried in DMF at 60 C), DMF (BPC822, 60 C), scale: 1=cyclic product detected, 0=not detected
smiles,measurement,setting,value
CC[C@H](C)[C@H](NC(=O)[C@@H](Cc1ccc(OC(C)(C)C)cc1)NC(=O)[C@H](CCC(=O)NC(c1ccccc1)(c1ccccc1)c1ccccc1)NC(=O)[C@@H]1CCCN1C(=O)[C@@H](NC(=O)[C@H](CCC(=O)OC(C)(C)C)NC(=O)[C@@H](NC(=O)[C@H](Cc1ccc(O)cc1)NC(=O)OC(C)(C)C)[C@@H](C)OC(C)(C)C)C(C)C)C(=O)n1c(=O)n(C)c2ccc(C(=O)NCC(N)=O)cc21,"ring closure, product found","29-membered ring, 0.5 h",1
CCCCCC(=O)N[C@@H](Cc1ccc(O)cc1)C(=O)N[C@@H](CC(C)C)C(=O)N1CCC[C@H]1C(=O)N[C@@H](Cc1ccccc1)C(=O)N[C@H](C(=O)N[C@H](C(=O)NCC(=O)n1c(=O)n(C)c2ccc(C(=O)NCC(N)=O)cc21)C(C)C)[C@@H](C)CC,"ring closure, product found",26-membered ring,1
CCCCCC(=O)N[C@@H](Cc1ccc(O)cc1)C(=O)NCC(=O)N[C@@H](Cc1ccccc1)C(=O)N[C@@H](C)C(=O)N1CCC[C@H]1C(=O)N[C@@H](C)C(=O)N[C@H](C(=O)N[C@H](C(=O)NCC(=O)n1c(=O)n(C)c2ccc(C(=O)NCC(N)=O)cc21)C(C)C)[C@@H](C)CC,"ring closure, product found",32-membered ring,0
CCCCCC(=O)N[C@@H](Cc1ccc(O)cc1)C(=O)N1CCC[C@H]1C(=O)N[C@@H](Cc1ccccc1)C(=O)N[C@H](C(=O)N[C@H](C(=O)NCC(=O)n1c(=O)n(C)c2ccc(C(=O)NCC(N)=O)cc21)C(C)C)[C@@H](C)CC,"ring closure, product found",23-membered ring,0
CCCCCC(=O)N[C@@H](Cc1ccc(O)cc1)C(=O)N[C@@H](C)C(=O)N[C@@H](CC(C)C)C(=O)N1CCC[C@H]1C(=O)N[C@@H](Cc1ccccc1)C(=O)N[C@H](C(=O)N[C@H](C(=O)NCC(=O)n1c(=O)n(C)c2ccc(C(=O)NCC(N)=O)cc21)C(C)C)[C@@H](C)CC,"ring closure, product found",29-membered ring,1
